The values below come from patent publication US20100113465A1, “7-AZASPIRO[3.5]NONANE-7-CARBOXAMIDE COMPOUNDS” (Pfizer Inc., priority 2008, published 2010).

The subject of experiment [1] is Male Sprague-Dawley Rats. Nature of the experiment: In vivo Complete Freund's Adjuvant (CFA) efficacy assay. The settings on record: inhibition of allodynia vs vehicle, p<0.05. Details: species or system rat; key: (+) indicates the test compound was determined to be efficacious at 3 mpk, oral dosing; (−) indicates the test compound was determined to not be efficacious at 3 mpk, oral dosing.

For another experiment, the target named is T1, human FAAH (Homo sapiens, UniProt O00519).
T1 construct: made in house; host or cells: E. coli
T1 sequence (O00519 1-579): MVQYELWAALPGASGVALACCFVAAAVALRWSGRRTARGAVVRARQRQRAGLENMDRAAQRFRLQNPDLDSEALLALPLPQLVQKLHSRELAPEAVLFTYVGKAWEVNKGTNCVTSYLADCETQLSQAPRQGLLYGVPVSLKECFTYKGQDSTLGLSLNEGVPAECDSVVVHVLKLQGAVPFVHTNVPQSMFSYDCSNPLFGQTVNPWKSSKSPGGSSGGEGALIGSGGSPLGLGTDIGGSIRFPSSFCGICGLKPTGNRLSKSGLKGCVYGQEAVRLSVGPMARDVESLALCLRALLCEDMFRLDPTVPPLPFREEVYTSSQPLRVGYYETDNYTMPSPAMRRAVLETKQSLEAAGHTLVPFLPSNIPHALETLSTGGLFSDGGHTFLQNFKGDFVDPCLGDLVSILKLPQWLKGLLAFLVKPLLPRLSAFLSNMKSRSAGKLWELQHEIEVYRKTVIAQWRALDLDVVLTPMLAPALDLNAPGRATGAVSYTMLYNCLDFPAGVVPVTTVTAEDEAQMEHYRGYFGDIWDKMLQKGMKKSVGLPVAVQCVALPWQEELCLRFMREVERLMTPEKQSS
As to the kind of experiment: FAAH assay, human FAAH enzyme inhibition (kinact/Ki). The class given is biochemical. The conditions noted are these: oleamide substrate 50 μM, 30° C., read-out: hFAAH kinact/Ki. A digest of the protocol: (§1)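 Purified E. coli-expressed FAAH (1-4 nM) with oleamide at Km (50 μM), coupled GDH/NADH read at 340 nm over 90 min, 30° C, pH 7.4, 7.5% DMSO and EtOH. kobs from mono-exponential fits; kinact/Ki from kobs vs inhibitor slope, multiplied by two.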

A further experiment addresses T2, rat FAAH (Rattus norvegicus, UniProt P97612).
T2 construct: made in house; host or cells: E. coli
T2 sequence (P97612 1-579): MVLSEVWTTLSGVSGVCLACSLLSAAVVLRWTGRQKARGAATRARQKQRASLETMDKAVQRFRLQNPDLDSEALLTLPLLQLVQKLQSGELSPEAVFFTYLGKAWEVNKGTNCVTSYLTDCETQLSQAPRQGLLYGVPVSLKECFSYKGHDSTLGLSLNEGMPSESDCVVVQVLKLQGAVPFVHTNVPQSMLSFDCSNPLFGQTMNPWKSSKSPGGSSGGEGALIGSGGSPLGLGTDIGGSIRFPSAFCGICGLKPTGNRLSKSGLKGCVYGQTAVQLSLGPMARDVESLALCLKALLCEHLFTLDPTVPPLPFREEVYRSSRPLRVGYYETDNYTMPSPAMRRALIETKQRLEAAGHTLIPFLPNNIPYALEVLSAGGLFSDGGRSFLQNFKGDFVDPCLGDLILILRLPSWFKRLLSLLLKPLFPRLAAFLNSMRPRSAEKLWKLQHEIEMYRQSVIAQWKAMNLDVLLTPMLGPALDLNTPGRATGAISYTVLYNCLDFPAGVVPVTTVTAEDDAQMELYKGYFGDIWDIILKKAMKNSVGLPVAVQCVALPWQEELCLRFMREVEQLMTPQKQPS
As to the kind of experiment: FAAH assay, rat FAAH enzyme inhibition (kinact/Ki). It is filed as biochemical. The conditions noted are these: oleamide substrate 50 μM, 30° C., read-out: rFAAH kinact/Ki. A digest of the protocol: as §1

Experiment [2] concerns Male Sprague-Dawley Rats. Nature of the experiment: In vivo Complete Freund's Adjuvant (CFA) efficacy assay. Also on record: species or system rat; key: (+) indicates the test compound was determined to be efficacious at 3 mpk, oral dosing; (−) indicates the test compound was determined to not be efficacious at 3 mpk, oral dosing. The conditions noted are these: 3 mpk, oral dosing; inhibition of allodynia (PWT) four hours postdose vs vehicle, p<0.05.

Marks after values point to notes of the source that are not given here.

Take `O=C(Nc1cccnn1)N1CCC2(CC1)CC(c1cccc(Oc3ccc(C(F)(F)F)cn3)c1)C2` [Example 1, N-pyridazin-3-yl-2-(3-{[5-(trifluoromethyl)pyridin-2-yl]oxy}phenyl)-7-azaspiro[3.5]nonane-7-carboxamide]: the “CFA Efficacy” value in the experiment on Male Sprague-Dawley Rats [1] (10 mpk, intraperitoneal dosing) is given as “(−)^c”. The kinact/KI was found to be 1570 M⁻¹ s⁻¹ at human FAAH and 647 M⁻¹ s⁻¹ on rat FAAH.
`Cc1noc(NC(=O)N2CCC3(CC2)CC(c2cccc(Oc4ccc(C(F)(F)F)cn4)c2)C3)c1C` [Example 2, N-(3,4-dimethylisoxazol-5-yl)-2-(3-{[5-(trifluoromethyl)pyridin-2-yl]oxy}phenyl)-7-azaspiro[3.5]nonane-7-carboxamide]: the “CFA Efficacy” value in the experiment on Male Sprague-Dawley Rats [1] (25 mpk, intraperitoneal dosing) is reported as “(+)^d”. The kinact/KI on human FAAH came to 1760 M⁻¹ s⁻¹; at rat FAAH, 9460 M⁻¹ s⁻¹.
`O=C(Nc1noc2ccccc12)N1CCC2(CC1)CC(c1cccc(Oc3ccc(C(F)(F)F)cn3)c1)C2` [Example 3, N-1,2-benzisoxazol-3-yl-2-(3-{[5-(trifluoromethyl)pyridin-2-yl]oxy}phenyl)-7-azaspiro[3.5]nonane-7-carboxamide]: the “CFA Efficacy” value in the experiment on Male Sprague-Dawley Rats [1] (1 mpk, oral dosing) is “(−)”; with Male Sprague-Dawley Rats [1] (25 mpk, intraperitoneal dosing) it was “(+)”. The kinact/KI came out at 1030 M⁻¹ s⁻¹ on human FAAH and 4920 M⁻¹ s⁻¹ on rat FAAH.
With `COc1cccc(C2CC3(CCN(C(=O)Nc4onc(C)c4C)CC3)C2)c1` [Example 5, N-(3,4-dimethylisoxazol-5-yl)-2-(3-methoxyphenyl)-7-azaspiro[3.5]nonane-7-carboxamide], the “CFA Efficacy” value in the experiment with Male Sprague-Dawley Rats [1] (10 mpk, intraperitoneal dosing) is listed as “(+)^c”. Also, the values for the kinact/KI on human FAAH and at rat FAAH were 2190 M⁻¹ s⁻¹ and 741 M⁻¹ s⁻¹, respectively.
As to `Cc1noc(NC(=O)N2CCC3(CC2)CC(c2cccc(C(F)(F)F)c2)C3)c1C` [Example 6, N-(3,4-dimethylisoxazol-5-yl)-2-[3-(trifluoromethyl)phenyl]-7-azaspiro[3.5]nonane-7-carboxamide], the “CFA Efficacy” value in the experiment on Male Sprague-Dawley Rats [1] (1 mpk, oral dosing) was “(−)^e”. The kinact/KI on human FAAH amounted to 3060 M⁻¹ s⁻¹; at rat FAAH, 3690 M⁻¹ s⁻¹.
The matching figures for `Cc1cccc(C2CC3(CCN(C(=O)Nc4onc(C)c4C)CC3)C2)c1` [Example 7, N-(3,4-dimethylisoxazol-5-yl)-2-(3-methylphenyl)-7-azaspiro[3.5]nonane-7-carboxamide]: “(−)^e”, 2870 M⁻¹ s⁻¹ and 1620 M⁻¹ s⁻¹.
The matching figures for `Cc1ccc(C2CC3(CCN(C(=O)Nc4onc(C)c4C)CC3)C2)cc1C` [Example 8, N-(3,4-dimethylisoxazol-5-yl)-2-(3,4-dimethylphenyl)-7-azaspiro[3.5]nonane-7-carboxamide]: “(−)^e”, 2820 M⁻¹ s⁻¹ and 1920 M⁻¹ s⁻¹.
Consider `O=C(Nc1cccnn1)N1CCC2(CC1)CC(c1cccc(Oc3ncc(Br)cn3)c1)C2` [Example 9, 2-{3-[(5-bromopyrimidin-2-yl)oxy]phenyl}-N-pyridazin-3-yl-7-azaspiro[3.5]nonane-7-carboxamide], for which, in the experiment on Male Sprague-Dawley Rats [1] (10 mpk, intraperitoneal dosing), the “CFA Efficacy” value is given as “(+)^c”. In addition, the kinact/KI was 2450 M⁻¹ s⁻¹ at human FAAH and 1430 M⁻¹ s⁻¹ at rat FAAH.
The matching figures for `O=C(Nc1cccnn1)N1CCC2(CC1)CC(c1cccc(Oc3ccc(Br)cn3)c1)C2` [Example 10, 2-{3-[(5-bromopyridin-2-yl)oxy]phenyl}-N-pyridazin-3-yl-7-azaspiro[3.5]nonane-7-carboxamide]: “(−)^c”, 2040 M⁻¹ s⁻¹ and 1820 M⁻¹ s⁻¹.
Take `Cn1nnnc1NC(=O)N1CCC2(CC1)CC(c1noc(-c3ccc(OC(F)(F)F)cc3)n1)C2` [Example 50, N-(1-methyl-1H-tetrazol-5-yl)-2-{5-[4-(trifluoromethoxy)phenyl]-1,2,4-oxadiazol-3-yl}-7-azaspiro[3.5]nonane-7-carboxamide]: the kinact/KI amounted to 16700 M⁻¹ s⁻¹ on human FAAH and 3530 M⁻¹ s⁻¹ on rat FAAH. In the experiment with Male Sprague-Dawley Rats [2], the “CFA Efficacy” value is reported as “(+)”.
Turning to `Cn1nnnc1NC(=O)N1CCC2(CC1)CC(F)(c1cccc(OC(F)(F)F)c1)C2` [Example 53, 2-fluoro-N-(1-methyl-1H-tetrazol-5-yl)-2-[3-(trifluoromethoxy)phenyl]-7-azaspiro[3.5]nonane-7-carboxamide], the figures for the kinact/KI on human FAAH and on rat FAAH were 13900 M⁻¹ s⁻¹ and 1920 M⁻¹ s⁻¹, respectively. Moreover, the “CFA Efficacy” value with Male Sprague-Dawley Rats [2] is listed as “(+)”.
The matching figures for `Cn1nnnc1NC(=O)N1CCC2(CC1)CC(c1cccc(Oc3ccc(C(F)(F)F)cn3)c1)C2` [Example 54, N-(1-methyl-1H-tetrazol-5-yl)-2-(3-{[5-(trifluoromethyl)pyridin-2-yl]oxy}phenyl)-7-azaspiro[3.5]nonane-7-carboxamide]: 21700 M⁻¹ s⁻¹, 26800 M⁻¹ s⁻¹ and “(+)”.
